Like-named read-outs stand apart in the source and are kept apart here.
Tests used:
[1] = tested on: Herpes simplex type 1; assay: microbe, parasite or virus in culture; format: cell-based, herpes simplex virus
[2] = tested on: coxsackie A 9 virus; assay: Antiviral activity against coxsackie A 9 virus; format: cell-based
[3] = tested on: Influenza A/WSN; assay: Plaque reduction test, influenza; format: cell-based; settings: Influenza A virus, primary chicken embryo cells, read-out: Plaque reduction in % of the virus control
[4] = tested on: Herpes simplex type 1 Kupka; assay: Grading replication test on RH cell line, herpes simplex type 1 Kupka; format: cell-based, herpes simplex virus; settings: RH cells
[5] = tested on: adenovirus type 4; assay: Antiviral activity against adenovirus type 4; format: cell-based
[6] = tested on: Vesicular Stomatitis Indiana; assay: microbe, parasite or virus in culture; format: cell-based, vesicular stomatitis virus
[7] = tested on: SE-specific IgM and IgG plaque forming cells (PFC); assay: Plaque test (HPT) for SE-specific IgM and IgG plaque forming cells, immunostimulatory action; format: in vivo, mouse (inbred CBA strain); settings: 2.0 mg/kg daily over 5 days; control 100%; p<0.001
Protocol: The testing of immunostimulatory effects was also conducted on the mouse (inbred CBA strain) by detection through the plaque test for detecting SE (sheep erythrocyte) -specific immunoglobulin M (IgM) and immunoglobulin G (IgG) PFC (plaque forming cells), and by the rosette test.
2.1 Plaque Test for the Detection of SE-Specific IgM and IgG Plaque Forming Cells (PFC)
To check the immunostimulatory effects, the humoral immune response effect of compounds of Formula I was also investigated in mice of the inbred CBA strain and determined by means of the haemolysis plaque test (HPT). This technique permits the PFC, which produce IgM and IgG antibodies, to be determined quantitatively and separately. The immunization with sheep erythrocytes (SE) was carried out on day 0, the substance was administered orally in a daily dose of 1×10^-5 moles/kg of body weight; on days -1 to +3 relative to the determination of the IgM PFC, or on days +1 to +5 relative to the determination of the IgG PFC.
It becomes clear that a daily treatment extending over 5 days with the compound of Example 1, produces a highly significant increase in the SE-specific IgM and IgG PFC in the CBA mouse.

[8] = tested on: Vaccinia Lister; assay: microbe, parasite or virus in culture; format: cell-based; settings: Orthopoxvirus vaccinia, in Gallus gallus, read-out: Plaque reduction in % of the virus control
[9] = tested on: Vesicular Stomatitis Indiana; assay: microbe, parasite or virus in culture; format: cell-based; settings: in Gallus gallus, read-out: Plaque reduction in % of the virus control
[10] = tested on: Vaccinia Lister; assay: microbe, parasite or virus in culture; format: cell-based, vaccinia virus
[11] = tested on: Influenza A/WSN; assay: Grading replication test on chicken embryo cells, influenza; format: cell-based; settings: Influenza A virus
[12] = tested on: SE-specific IgM and IgG plaque forming cells (PFC); assay: Immunorestorative efficacy: plaque test in cyclophosphamide (CY) damaged animals; format: in vivo, mouse (CBA inbred); settings: for IgM PFC/10^6, CY + compound / IgG PFC/10^6 spleen cells, CY + compound: CY 150 mg/kg, oral 2 mg/kg
Protocol: The detection of immunorestorative effects after injury to the immune system was carried out also by the plaque test for detecting SE-specific IgM, and IgG PFC, and by the rosette test.
The determination of the immunorestorative activity of compounds of Formula I was conducted by first damaging the immune system of the experimental animals (CBA inbred mice) by chemotherapy with cyclophosphamide, carrageenan, iloprost, or by radiation. The test was carried the plaque test for detecting SE-specific IgM and IgG PFC, and the rosette test.
The examination of the immunorestorative effects of compounds of Example 1 was carried out by damaging the immune system of the experimental animals by cyclophosphamide (CY), and subsequent testing by sheep erythrocycle SE-specific plaque forming cells PFC.
The immune system of the animals was damaged by the injection of 150 mg/kg of body weight on day -1 before the immunization for both the test and the control groups. Immunization was carried out by the intraperitoneal injection of 4×10^8 SE in 0.2 ml of phosphate buffered saline (PBS) solution.
Each of the experimental animals of the test group received by oral administration 2 mg of the compound of Example 1 per kg of body weight on the days -2, -1, 0, +1 and +2. The SE-specific IgM and IgG PFC was detected by the plaque test.

[13] = tested on: Vaccinia Lister; assay: microbe, parasite or virus in culture; format: cell-based; settings: Orthopoxvirus vaccinia
[14] = Vesicular stomatitis virus, in Gallus gallus, read-out: Lowering the virus yield
[15] = Orthopoxvirus vaccinia, in Gallus gallus, read-out: Inhibition of virus yield
[16] = Orthopoxvirus vaccinia, in Gallus gallus, read-out: Lowering the virus yield
[17] = read-out: Inhibition of virus yield
[18] = read-out: Lowering the virus yield

O=c1[nH]c2ccccc2c(=O)n1CCS [Example 1, 3-(2-mercapto-ethyl)-quinazoline-2,4(1H,3H)-dione]
Inhibition of virus yield [1]: n.s.
log reduction at 125 µM ([1]; Human alphaherpesvirus 1, in Gallus gallus, read-out: Lowering the virus yield): 0.33
inhibition at 250 µM ([1]; Human alphaherpesvirus 1, 250 μmoles/l, chicken embryo cells, read-out: Inhibition of virus yield): 99%
log reduction at 250 µM ([1]; Human alphaherpesvirus 1, 250 μmoles/l, chicken embryo cells, read-out: Lowering the virus yield): 1
antiviral activity [2]: did not have antiviral activity
inhibition at 31.25 µM ([3]; 31.25 μmoles/l): 85%
inhibition at 62.5 µM ([3]; 62.5 μmoles/l): 92%
inhibition at 125 µM ([3]; 125 μmoles/l): 98%
inhibition at 250 µM ([3]; 250 μmoles/l): 100%
Inhibition of virus yield ([4]; 62.5 μmoles/l, n.s. = not significant): n.s.
log reduction at 62.5 µM ([4]; Human alphaherpesvirus 1, 62.5 μmoles/l, read-out: Lowering the virus yield): 0.75
inhibition at 125 µM ([4]; Human alphaherpesvirus 1, 125 μmoles/l, read-out: Inhibition of virus yield): > 100%
log reduction at 125 µM ([4]; Human alphaherpesvirus 1, 125 μmoles/l, read-out: Lowering the virus yield): 5.5
inhibition at 250 µM ([4]; Human alphaherpesvirus 1, 250 μmoles/l, read-out: Inhibition of virus yield): > 100%
log reduction at 250 µM ([4]; Human alphaherpesvirus 1, 250 μmoles/l, read-out: Lowering the virus yield): 6
antiviral activity [5]: did not have antiviral activity
Inhibition of virus yield ([6]; 125 μmoles/l, chicken embryo cells, n.s. = not significant): n.s.
inhibition at 250 µM ([6]; Vesicular stomatitis virus, in Gallus gallus, read-out: Inhibition of virus yield): 99.9%
log reduction at 125 µM [6, 14]: 0.5
log reduction at 250 µM [6, 14]: 3
number of IgG PFC relative to control [7]: 497%
number of IgM PFC relative to control [7]: 352%
inhibition at 31.25 µM [8]: 87%
inhibition at 62.5 µM [8]: 92%
inhibition at 125 µM [8]: 96%
inhibition at 250 µM [8]: 100%
inhibition at 62.5 µM [9]: 0%
inhibition at 125 µM [9]: 15%
inhibition at 250 µM [9]: 45%
inhibition at 31.25 µM [10, 15]: 99%
inhibition at 62.5 µM [10, 15]: 99.7%
inhibition at 125 µM [10, 15]: 100%
inhibition at 250 µM [10, 15]: > 100%
log reduction at 31.25 µM [10, 16]: 1
log reduction at 62.5 µM [10, 16]: 2.5
log reduction at 125 µM [10, 16]: 4
log reduction at 250 µM [10, 16]: 5.67
therapeutic index ([10]; ratio of maximum tolerated dose to minimum effective dose, vaccinia virus): 8
inhibition at 31.25 µM ([11]; 31.25 μmoles/l, read-out: Inhibition of virus yield): 99.5%
log reduction at 31.25 µM ([11]; 31.25 μmoles/l, read-out: Lowering the virus yield): 2.5
inhibition at 62.5 µM ([11]; 62.5 μmoles/l, read-out: Inhibition of virus yield): > 100%
log reduction at 62.5 µM ([11]; 62.5 μmoles/l, read-out: Lowering the virus yield): 4.25
inhibition at 125 µM ([11]; 125 μmoles/l, read-out: Inhibition of virus yield): > 100%
log reduction at 125 µM ([11]; 125 μmoles/l, read-out: Lowering the virus yield): 4.67
inhibition at 250 µM ([11]; 250 μmoles/l, read-out: Inhibition of virus yield): > 100%
log reduction at 250 µM ([11]; 250 μmoles/l, read-out: Lowering the virus yield): 6.23
number of IgG PFC in CY-suppressed animals ([12]; 6th and 7th days, p<0.05 and p<0.01): significantly increases the number of IgG PFC
recovery of the immunological reactivity (IgM PFC) ([12]; CY-damaged animals, significant on the 5th day, p<0.05): measurable recovery of the immunological reactivity
IgM PFC/10^6, CY + compound ([12]; day of testing +3, CY only control 37.5 ± 27.1): 31.7 ± 26.6 PFC/10^6
IgM PFC/10^6, CY + compound ([12]; day of testing +4, CY only control 49.7 ± 32.9): 59.8 ± 26.6 PFC/10^6
IgM PFC/10^6, CY + compound ([12]; day of testing +5, CY only control 56.8 ± 27.6, p<0.05): 125.2 ± 32.7 PFC/10^6
IgG PFC/10^6 spleen cells, CY + compound ([12]; day of testing +6, CY only control 26.7 ± 12.1, p<0.05): 88.3 ± 24.8 PFC/10^6 spleen cells
IgM PFC/10^6, CY + compound ([12]; day of testing +6, CY only control 74.7 ± 73.4): 47.8 ± 32.7 PFC/10^6
IgG PFC/10^6 spleen cells, CY + compound ([12]; day of testing +7, CY only control 46.7 ± 16.3, p<0.01): 128.3 ± 28.6 PFC/10^6 spleen cells
IgG PFC/10^6 spleen cells, CY + compound ([12]; day of testing +8, CY only control 63.3 ± 24.2): 58.3 ± 43.6 PFC/10^6 spleen cells
inhibition at 31.25 µM [13, 17]: > 100%
inhibition at 62.5 µM [13, 17]: 100%
inhibition at 125 µM [13, 17]: > 100%
inhibition at 250 µM [13, 17]: > 100%
log reduction at 31.25 µM [13, 18]: 3.5
log reduction at 62.5 µM [13, 18]: 4
log reduction at 125 µM [13, 18]: > 4
log reduction at 250 µM [13, 18]: > 4
